Results taken from US7932262B2 (Novartis AG, priority 2006, dated 2011).

How the values were obtained:
[1] = test system: PC3MM cells; assay: Cell Proliferation Assay (Cell Titer Glo), PC3MM; type: cell-based; conditions: cell proliferation, PC3MM cells; read-out: CPEC50 PC3MM
How it was run: (§1)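 Following a 3-day compound exposure (37° C., 5% CO2) of A2780 or PC3MM cells plated at 1000 per well, viability was measured by Cell Titer Glo luminescence in fresh medium, read 10 min after reagent addition.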

[2] = target: T1, PDK1 kinase (Homo sapiens, UniProt O15530); assay: PDK1 Kinase Alpha Screen Assay; type: biochemical; conditions: PDK1 Kinase Alpha Screen Assay; read-out: PDK1 IC50
T1 sequence (O15530 1-556): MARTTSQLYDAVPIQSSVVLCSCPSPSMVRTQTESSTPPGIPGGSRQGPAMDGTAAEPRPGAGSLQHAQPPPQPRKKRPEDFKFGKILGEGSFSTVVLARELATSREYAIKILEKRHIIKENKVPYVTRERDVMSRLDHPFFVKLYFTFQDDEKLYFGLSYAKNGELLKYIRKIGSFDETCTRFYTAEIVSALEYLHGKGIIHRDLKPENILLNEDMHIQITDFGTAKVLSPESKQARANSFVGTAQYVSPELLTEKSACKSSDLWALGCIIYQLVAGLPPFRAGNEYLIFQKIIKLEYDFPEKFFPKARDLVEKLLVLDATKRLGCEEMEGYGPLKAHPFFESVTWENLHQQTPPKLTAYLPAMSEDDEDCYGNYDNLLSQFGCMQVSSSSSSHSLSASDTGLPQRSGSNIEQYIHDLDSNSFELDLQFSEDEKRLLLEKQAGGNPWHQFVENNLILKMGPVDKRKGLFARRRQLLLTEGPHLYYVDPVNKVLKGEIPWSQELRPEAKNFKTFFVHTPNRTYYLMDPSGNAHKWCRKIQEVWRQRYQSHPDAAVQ
How it was run: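 PDK1, 10 uM ATP, 50 nM biotin-PDK1-4 peptide; 50 mM Tris pH 7.5, 10 mM MgCl2, 0.1% BSA, 0.01% Tween-20, 2 mM DTT, 2.5% DMSO; 3-18 h. EDTA stop; AlphaScreen, phospho-Ser/Thr antibody, overnight RT.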

[3] = test system: A2780 cells; assay: Cell Proliferation Assay (Cell Titer Glo), A2780; type: cell-based; conditions: Homo sapiens; cell proliferation, A2780 cells; read-out: CPEC50 A2780
How it was run: as §1

Row | SMILES | EC50 [1] | IC50 [2] | EC50 [3]
1 | NS(=O)(=O)c1ccc(Nc2ncc3ccc(Br)c(OC4CCNCC4)c3n2)cc1 [Compound 845, 4-(7-bromo-8-(piperidin-4-yloxy)quinazolin-2-ylamino)benzenesulfonamide] | < 5 µM | < 5 µM | < 5 µM
2 | NS(=O)(=O)c1ccc(Nc2ncc3cccc(C(=O)N4CCS(=O)(=O)CC4)c3n2)cc1 [Compound 770] | 10 to 25 µM | 10 to 25 µM | 5 to 10 µM
3 | CN1CCC(Oc2cccc3cnc(Nc4ccc(S(N)(=O)=O)cc4)nc23)CC1 [Compound 724, 4-(8-(1-methylpiperidin-4-yloxy)quinazolin-2-ylamino)benzenesulfonamide] | < 5 µM | < 5 µM | < 5 µM
4 | NS(=O)(=O)c1ccc(Nc2ncc3cccc(-c4ccc(N5CCOCC5)nc4)c3n2)cc1 [Compound 826, 4-(8-(6-morpholinopyridin-3-yl)quinazolin-2-ylamino)benzenesulfonamide] | < 5 µM | < 5 µM | < 5 µM
5 | CN1CC[C@H](Oc2cccc3cnc(Nc4ccc(S(N)(=O)=O)cc4)nc23)C1 [Compound 723, (S)-4-(8-(1-methylpyrrolidin-3-yloxy)quinazolin-2-ylamino)benzenesulfonamide] | < 5 µM | < 5 µM | < 5 µM
6 | NS(=O)(=O)c1ccc(Nc2ncc3cccc(O[C@H]4CCNC4)c3n2)cc1 [Compound 721, (S)-4-(8-(pyrrolidin-3-yloxy)quinazolin-2-ylamino)benzenesulfonamide] | < 5 µM | < 5 µM | < 5 µM
7 | CN(C)[C@H]1CCN(C(=O)c2cccc3cnc(Nc4ccc(S(N)(=O)=O)cc4)nc23)C1 [Compound 806, (S)-4-(8-(3-(dimethylamino)pyrrolidine-1-carbonyl)quinazolin-2-ylamino)benzenesulfonamide] | < 5 µM | < 5 µM | 5 to 10 µM
8 | NS(=O)(=O)c1ccc(Nc2ncc3cccc(-c4cccc(S(N)(=O)=O)c4)c3n2)cc1 [Compound 738, 3-(2-(4-sulfamoylphenylamino)quinazolin-8-yl)benzenesulfonamide] | < 5 µM | < 5 µM | < 5 µM
9 | CC(C)Nc1ccc(-c2cccc3cnc(Nc4ccc(S(N)(=O)=O)cc4)nc23)cn1 [Compound 831, 4-(8-(6-(isopropylamino)pyridin-3-yl)quinazolin-2-ylamino)benzenesulfonamide] | < 5 µM | < 5 µM | < 5 µM
10 | NS(=O)(=O)c1ccc(Nc2ncc3ccc(-c4cn[nH]c4)cc3n2)cc1 [Compound 792, 4-(7-(1H-pyrazol-4-yl)quinazolin-2-ylamino)benzenesulfonamide] | < 5 µM | < 5 µM | < 5 µM
11 | Cc1ccc(C(N)=O)c(NC(=O)c2ccc3cnc(Nc4ccc(S(N)(=O)=O)cc4)nc3c2)c1 [Compound 842, N-(2-carbamoyl-5-methylphenyl)-2-(4-sulfamoylphenylamino)quinazoline-7-carboxamide] | < 5 µM | < 5 µM | 5 to 10 µM
12 | CCN1CC(Oc2cccc3cnc(Nc4ccc(S(N)(=O)=O)cc4)nc23)C1 [Compound 841, 4-(8-(1-ethylazetidin-3-yloxy)quinazolin-2-ylamino)benzenesulfonamide] | < 5 µM | < 5 µM | < 5 µM
13 | CN1CCN(c2cc(-c3cccc4cnc(Nc5ccc(S(N)(=O)=O)cc5)nc34)ccn2)CC1 [Compound 753, 4-(8-(2-(4-methylpiperazin-1-yl)pyridin-4-yl)quinazolin-2-ylamino)benzenesulfonamide] | < 5 µM | < 5 µM | < 5 µM
14 | O=S(=O)(NCCN1CCCC1)c1cccc(Nc2ncc3cccc(OC4CCNCC4)c3n2)c1 [Compound 811, 3-(8-(piperidin-4-yloxy)quinazolin-2-ylamino)-N-(2-(pyrrolidin-1-yl)ethyl)benzenesulfonamide] | < 5 µM | < 5 µM | 5 to 10 µM
15 | NS(=O)(=O)c1ccc(Nc2ncc3cccc(-c4ccnc(N5CCOCC5)c4)c3n2)cc1 [Compound 752, 4-(8-(2-morpholinopyridin-4-yl)quinazolin-2-ylamino)benzenesulfonamide] | < 5 µM | < 5 µM | < 5 µM
16 | Nc1ncc(-c2cccc3cnc(Nc4ccc(S(N)(=O)=O)cc4)nc23)cn1 [Compound 823, 4-(8-(2-aminopyrimidin-5-yl)quinazolin-2-ylamino)benzenesulfonamide] | < 5 µM | < 5 µM | < 5 µM
17 | NS(=O)(=O)c1ccc(Nc2ncc3cccc(C(=O)NCCN4CCCC4)c3n2)cc1 [Compound 762, N-(2-(pyrrolidin-1-yl)ethyl)-2-(4-sulfamoylphenylamino)quinazoline-8-carboxamide] | 5 to 10 µM | < 5 µM | < 5 µM
18 | CC(C)CN1CC(Oc2cccc3cnc(Nc4ccc(S(N)(=O)=O)cc4)nc23)C1 [Compound 835, 4-(8-(1-isobutylazetidin-3-yloxy)quinazolin-2-ylamino)benzenesulfonamide] | < 5 µM | < 5 µM | < 5 µM
19 | NS(=O)(=O)c1ccc(Nc2ncc3ccc(-c4ccc(F)nc4F)cc3n2)cc1 [Compound 836, 4-(7-(2,6-difluoropyridin-3-yl)quinazolin-2-ylamino)benzenesulfonamide] | < 5 µM | < 5 µM | < 5 µM
20 | NS(=O)(=O)c1ccc(Nc2ncc3cccc(-c4ccncc4)c3n2)cc1 [Compound 743, 4-(8-(pyridin-4-yl)quinazolin-2-ylamino)benzenesufonamide] | < 5 µM | < 5 µM | 5 to 10 µM
21 | CS(=O)(=O)c1cccc(-c2cccc3cnc(Nc4ccc(S(N)(=O)=O)cc4)nc23)c1 [Compound 735, 4-(8-(3-(methysulfonyl)phenyl)quinazolin-2-ylamino)benzenesulfonamide] | < 5 µM | < 5 µM | < 5 µM
22 | CC(C)N1CCN(C(=O)c2ccc3cnc(Nc4ccc(S(N)(=O)=O)cc4)nc3c2)CC1 [Compound 766, 4-(7-(4-isopropylpiperazine-1-carbonyl)quinazolin-2-ylamino)benzenesulfonamide] | 10 to 25 µM | < 5 µM | 5 to 10 µM
23 | COCCNS(=O)(=O)c1cccc(Nc2ncc3cccc(OC4CCNCC4)c3n2)c1 [Compound 777, N-(2-methoxyethyl)-3-(8-(piperidin-4-yloxy)quinazolin-2-ylamino)benzenesulfonamide] | < 5 µM | < 5 µM | 5 to 10 µM
24 | NS(=O)(=O)c1ccc(Nc2ncc3cccc(-c4cn[nH]c4)c3n2)cc1 [Compound 751, 4-(8-(1H-pyrazol-yl)quinazolin-2-ylamino)benzenesulfonamide] | < 5 µM | < 5 µM | < 5 µM
25 | Nc1cc(-c2cccc3cnc(Nc4ccc(S(N)(=O)=O)cc4)nc23)ccn1 [Compound 756, 4-(8-(2-aminopyridin-4-yl)quinazolin-2-ylamino)benzenesulfonamide] | < 5 µM | < 5 µM | 5 to 10 µM
26 | NC(=O)c1ccc(Nc2ncc3cccc(OC4CCNCC4)c3n2)cc1 [Compound 717, 4-(8-(piperidin-4-yloxy)quinazolin-2-ylamino)benzamide] | < 5 µM | < 5 µM | < 5 µM
